Source: patent US4173641A, “Di-O-n-alkyl glycerol derivatives as immune stimulants” (priority 1978, dated 1979)
“And” between values parts separate entries of the source, which are not always exact repeats. Equal values may be shown once. Where a name gives a salt, the structure may show the parent alone. Read-outs that look alike come from different tables or passages of the source.

Experiments:
[1] = system: S-180J cells (sarcoma 180J); experiment: Sarcoma 180J model for assessment of tumor rejection; format: in vivo, female CD-1 mice; conditions: for number of 40 day survivors: six mice per group
Method: Six female CD-1 mice (20-25 g) per group received 10^6 S-180J cells which were 5 to 8 days old by intraperitoneal administration. On the day following tumor innoculation the mice received 0.1 ml of the test compound formulated in the fat emulsion vehicle Intralipid (Cutter Laboratories) at the desired dose and were then observed until death or 40 days, whichever occurs first. Results are expressed as increased percent life span (%ILS), defined as follows: [formula] Results obtained by the above test procedure were as follows:
Results of the above test obtained with (1-hydroxy-2-alkylamino ethyl)-benzyloxy analogs of this invention formulated in Tween 80-glycerol-water are shown in Table 2.
(Numbers in parentheses in Tables 1 and 2 above are the number

in vivo = experiment: in vivo; design: species or system mice and rats; conditions: read-out: therapeutic index
Text: The compounds may be used in pharmaceutical preparations containing the compound or a pharmaceutically acceptable salt thereof in combination with a pharmaceutically acceptable carrier or diluent. A particularly preferred type of pharmaceutical carrier for this purpose is a sterile fat or lipid emulsion vehicle. […] Such advantages have been reported for other compounds used with such fat emulsion vehicles, see for example Fortner, et al., American Journal of Hospital Pharmacy, 32, 502 (1975) and Jeppsson, et al., First International Conference on Pharmaceutical technology, Faculty of Pharmacy, Paris-Sud, June 1977. An example of a particularly suitable vehicle is Intralipid (Cutter Laboratories, Berkeley, California), a 10% fat emulsion, based on soybean oil. However, other similar vehicles would be suitable and may be readily prepared by those skilled in the art.

[2] = system: L 1210 cells / peritoneal macrophages; experiment: Assessment of peritoneal macrophage activation (inhibition of DNA synthesis in L 1210 cells); format: in vivo, mice; conditions: Mus musculus, L1210, ip, intraperitoneal, macrophages harvested 72 hours later
Method: (§1) Mice were injected intraperitoneally with saline or the test compound. Macrophages were harvested 72 hours later by intraperitoneal injection of 3 ml 8% fetal calf serum-- 92% RPMI 1640 medium (Grand Island Biological Co., N.Y.) (164092 FCS8) plus 5 units/ml of heparin, the temperature of all media being kept at 37° C., lavaged 1 to 2 minutes, opened and all peritoneal fluid drawn off with a sterile, siliconized pipet into a 50 ml plastic tube kept in ice. The macrophages were counted using a hemocytometer and adjusted to a concentration of 1.5×10^6 /ml with 164092 FCS8. The cells were then placed in multiwell plates, 1.5×10^6 cells per well, and incubated for 1 to 2 hours at 37° C. in a 5% carbon dioxide atmosphere. The supernate was discarded and the cells were washed once with media, the macrophages adhering to the bottom of the wells. L 1210 cells (harvested from ascites of DBA mice approximately 5 days after innoculation) in 164092 FCS8 were then added, 1 ml of 1×10^5 cells/ml to each well and incubated at 37° C. for 24 to 30 hours in a 5% carbon dioxide atmosphere. The cells were then pulsed with ^3 H-Tdr (1.0μCi/ml; Amersham/Searles) for 6 hours at 37° C., the supernate drawn off using a cell harvester: Reeve-Angel filter, and washed five times with saline. The filter discs were allowed to dry and placed in scintillation vials with LSC scintillation fluid (5.0 g PPO and 0.2 g POPOP/liter toluene; Yorktown Research). Counting was done for 2 minutes using a Beekman LS-250 β-counter.

[3] = system: L1210 cells / peripheral blood monocytes; experiment: Assessment of peripheral blood monocyte activation (inhibition of DNA synthesis in L1210 cells); format: in vivo, rats; conditions: Rattus norvegicus, intravenous, monocytes harvested 72 hours later, Effector:Target ratio 15:1
Method: as §1, with “The cells were then pulsed with ^3 H-Tdr (1.0μCi/ml; Amersham/Searles) for 6 hours at 37° C., the supernate drawn off using a cell harvester: Reeve-Angel filter, and washed five times with saline. The filter discs were allowed to dry and placed in scintillation vials with LSC scintillation fluid (5.0 g PPO and 0.2 g POPOP/liter toluene; Yorktown Research). Counting was done for 2 minutes using a Beekman LS-250 β-counter.” left out
Rats were injected intravenously with the test compound, or with saline for control animals. […] Following the procedure described in Example 13 the cells were pulsed with ^3 H-Tdr and counted with a scintillation counter.

Influenza virus = experiment: Vaccine adjuvanticity - hemagglutination inhibition test; format: in vivo, Hartley female guinea pigs (vaccinated); influenza virus; conditions: for Hemagglutination Titer: compound (5 mg) with Fluogen, individual animal
[4] = 5 mg/kg, Tween 80-glycerol-water
[5] = 15 mg/kg, Tween 80-glycerol-water
[6] = 50 mg/kg, Tween 80-glycerol-water
[7] = 0.25 mg/kg, fat emulsion vehicle Intralipid
[8] = 1 mg/kg, fat emulsion vehicle Intralipid
[9] = 4 mg/kg, fat emulsion vehicle Intralipid
[10] = 16 mg/kg, fat emulsion vehicle Intralipid

For `CCCCCCCCCCCCCCCCOCC(COCCCCCCCCCCCCCCCC)OCc1cccc(C(O)CNC(C)(C)C)c1` (stereo not drawn) [C(CH3)3 1,3], the “%ILS (increased percent life span)” value [1, 4] was 159%, the “number of 40 day survivors” value [1, 4] was 1 and the “%ILS (increased percent life span)” value [1, 5] was 171%. The “number of 40 day survivors” value [1, 5] was 3, the “%ILS (increased percent life span)” value [1, 6] was 157% and the “number of 40 day survivors” value [1, 6] was 2.
In the case of `CCCCCCCCCCCCCCCCOCC(COCc1cccc(C(O)CNC(C)(C)C)c1)OCCCCCCCCCCCCCCCC.Cl` (stereo not drawn) [C(CH3)3 2,3, 1,2-Di-O-(n-hexadecyl)-3-O-[3-(1-hydroxy-2-t-butylaminoethyl)benzyl]-glycerol hydrochloride], the “%ILS (increased percent life span)” value [1, 4] was 166%, the “number of 40 day survivors” value [1, 4] was 2 and the “%ILS (increased percent life span)” value [1, 5] was 181%. For the same compound, the “number of 40 day survivors” value [1, 5] was 4, the “%ILS (increased percent life span)” value [1, 6] was 182% and the “number of 40 day survivors” value [1, 6] was 4.
In the case of `CCCCCCCCCCCCCCCCOCC(COCc1cccc(C(O)CNC(C)C)c1)OCCCCCCCCCCCCCCCC` (stereo not drawn) [CH(CH3)2 2,3], the “%ILS (increased percent life span)” value [1, 4] was 174%, the “number of 40 day survivors” value [1, 4] was 1 and the “%ILS (increased percent life span)” value [1, 5] was 135%. For the same compound, the “%ILS (increased percent life span)” value [1, 6] was 147% and the “number of 40 day survivors” value [1, 6] was 1.
In the case of `CCCCCCCCOCC(CN1CCC(CN)(c2ccccc2)CC1)OCCCCCCCC` (stereo not drawn) [n-C8 H17], the “%ILS (increased percent life span)” value [1, 7] was 113%, the “%ILS (increased percent life span)” value [1, 8] was 109% and the “number of 40 day survivors” value ([1]; 4 mg/kg, Intralipid) was 1. For the same compound, the “%ILS (increased percent life span)” value [1, 9] was 154%, the “number of 40 day survivors” value ([1]; 16 mg/kg, Intralipid) was 4 and the “%ILS (increased percent life span)” value [1, 10] was 192%. For the same compound, the selectivity ratio (in vivo; Tween 80-glycerol-water formulations) was ~3 and the selectivity ratio (in vivo; sterile fat or lipid emulsion vehicle, parenteral and intravenous) was 15 to 25.
For `CCCCCCCCCCOCC(CN1CCC(CN)(c2ccccc2)CC1)OCCCCCCCCCC` (stereo not drawn) [n-C10 H21, 4-Aminomethyl-1-[2,3-(di-n-decyloxy)-n-propyl]-4-phenylpiperidine], the “%ILS (increased percent life span)” value [1, 7] was 127%, the “number of 40 day survivors” value ([1]; 1 mg/kg, Intralipid) was 1 and the “%ILS (increased percent life span)” value [1, 8] was 139%. For the same compound, the “%ILS (increased percent life span)” value [1, 9] was 110%, the “%ILS (increased percent life span)” value [1, 10] was 108% and the inhibition at 0.313 mg/kg ([2]; 0.313 mg/kg) was 56%. It also gave an inhibition at 0.625 mg/kg ([2]; 0.625 mg/kg) of 94%, an inhibition at 1.25 mg/kg ([2]; 1.25 mg/kg) of 76% and an inhibition at 1.25 mg/kg [3] of 80%. The “Hemagglutination Titer” value (Influenza virus; day 15 after primary sensitization) was 10 and 0, the “Hemagglutination Titer” value (Influenza virus; day 30 after primary sensitization (rechallenge day)) was 10 and 40 and 20 and 0 and the “Hemagglutination Titer” value (Influenza virus; day 44 after primary sensitization, rechallenged at 30 days) was 80 and 640 and 10 and 40. The “Hemagglutination Titer” value (Influenza virus; day 65 after primary sensitization, rechallenged at 30 days) was 1280 and 2560 and 160 and 20 and 10 and the “hemagglutination titer observed after rechallenge (adjuvant activity)” value (Influenza virus; compound with Fluogen, in words) was “higher hemagglutination titer observed after rechallenge”.
For `CCCCCCCCCCCCCCOCC(CN1CCC(CN)(c2ccccc2)CC1)OCCCCCCCCCCCCCC` (stereo not drawn) [n-C14 H29], the “number of 40 day survivors” value ([1]; 0.25 mg/kg, Intralipid) was 1, the “%ILS (increased percent life span)” value [1, 7] was 129% and the “%ILS (increased percent life span)” value [1, 8] was 116%. For the same compound, the “%ILS (increased percent life span)” value [1, 9] was 133%, the “%ILS (increased percent life span)” value [1, 10] was 109% and the inhibition at 25 mg/kg ([2]; 25 mg/kg) was 90%.
With `CCCCCCCCCCCCCCCCOCC(CN1CCC(CN)(c2ccccc2)CC1)OCCCCCCCCCCCCCCCC` (stereo not drawn) [n-C16 H33, 4-Aminomethyl-1-[2,3-(di-n-hexadecyloxy)-n-propyl]-4-phenylpiperidine Dihydrochloride] the “%ILS (increased percent life span)” value [1, 7] was 110%, the “%ILS (increased percent life span)” value [1, 8] was 105% and the “%ILS (increased percent life span)” value [1, 9] was 104%. The “%ILS (increased percent life span)” value [1, 10] was 127%.
With `CCCCCCCCCCCCCCCCCCOCC(CN1CCC(CN)(c2ccccc2)CC1)OCCCCCCCCCCCCCCCCCC` (stereo not drawn) [n-C18 H37] the “%ILS (increased percent life span)” value [1, 7] was 119%, the “number of 40 day survivors” value ([1]; 1 mg/kg, Intralipid) was 2 and the “%ILS (increased percent life span)” value [1, 8] was 158%. The “%ILS (increased percent life span)” value [1, 9] was 98% and the “%ILS (increased percent life span)” value [1, 10] was 109%.
